# Assay results as given in US10004701B2, “Methods and compositions for treating infection” (UNIVERSITY OF ROCHESTER, priority 2012, dated 2018).
# Counter-ions that a name gives are not always drawn. Like-named read-outs stand apart in the source and are kept apart here.
# Tests used:
# Assay in all cases: AK assay 384-well format, Prestwick library screening
# K. pneumoniae = format: cell-based, Klebsiella pneumoniae; settings: 50 μM final drug concentration; for fold induction at 50 µM: Klebsiella pneumoniae, 3 h
# [1] = tested on: S. aureus strain USA300-0114; format: cell-based, Staphylococcus aureus; settings: 50 μM final drug concentration; for fold induction at 50 µM: Staphylococcus aureus, USA300, 3 h
# E. coli = format: cell-based, Escherichia coli; settings: 50 μM final drug concentration; for fold induction at 50 µM: Escherichia coli, 3 h
# E. cloacae = format: cell-based, Enterobacter cloacae; settings: 50 μM final drug concentration; for fold induction at 50 µM: Enterobacter cloacae, 3 h
# [2] = tested on: A. baumannii strain 98-37-09; format: cell-based, Acinetobacter baumannii; settings: 50 μM final drug concentration; for fold induction at 50 µM: Acinetobacter baumannii, 983709, 3 h
# P. aeruginosa = format: cell-based, Pseudomonas aeruginosa; settings: 50 μM final drug concentration; for fold induction at 50 µM: Pseudomonas aeruginosa, 3 h
# E. faecium = format: cell-based, Enterococcus faecium; settings: 50 μM final drug concentration; for fold induction at 50 µM: Enterococcus faecium, 3 h
# [3] = planktonic K. pneumoniae, 384-well, cutoff for positive-scoring molecules 3-fold increase, read-out: AK-based Prestwick Library Screening Results: K. pneumoniae (increase in extracellular AK activity)
# [4] = planktonic S. aureus, 384-well, cutoff for positive-scoring molecules 3-fold increase, read-out: AK-based Prestwick Library Screening Results: S. aureus (increase in extracellular AK activity)
# [5] = planktonic E. coli, 384-well, cutoff for positive-scoring molecules 3-fold increase, read-out: AK-based Prestwick Library Screening Results: E. coli (increase in extracellular AK activity)
# [6] = planktonic E. cloacae, 384-well, cutoff for positive-scoring molecules 3-fold increase, read-out: AK-based Prestwick Library Screening Results: E. cloacae (increase in extracellular AK activity)
# [7] = planktonic A. baumannii, 384-well, cutoff for positive-scoring molecules 3-fold increase, read-out: AK-based Prestwick Library Screening Results: A. baumannii (increase in extracellular AK activity)
# [8] = planktonic P. aeruginosa, 384-well, cutoff for positive-scoring molecules 3-fold increase, read-out: AK-based Prestwick Library Screening Results: P. aeruginosa (increase in extracellular AK activity)
# [9] = planktonic E. faecium, 384-well, cutoff for positive-scoring molecules 3-fold increase, read-out: AK-based Prestwick Library Screening Results: E. faecium (increase in extracellular AK activity)
# [10] = planktonic K. pneumoniae, cutoff for positive-scoring molecules 3-fold increase, read-out: AK-based Prestwick Library Screening Results, K. pneumoniae (increase in extracellular AK activity)
# [11] = planktonic S. aureus, cutoff for positive-scoring molecules 3-fold increase, read-out: AK-based Prestwick Library Screening Results, S. aureus (increase in extracellular AK activity)
# [12] = planktonic E. coli, […], read-out: AK-based Prestwick Library Screening Results, E. coli (increase in extracellular AK activity)
# [13] = planktonic E. cloacae, cutoff for positive-scoring molecules 3-fold increase, read-out: AK-based Prestwick Library Screening Results, E. cloacae (increase in extracellular AK activity)
# [14] = planktonic A. baumannii, cutoff for positive-scoring molecules 3-fold increase, read-out: AK-based Prestwick Library Screening Results, A. baumannii (increase in extracellular AK activity)
# [15] = planktonic P. aeruginosa, cutoff for positive-scoring molecules 3-fold increase, read-out: AK-based Prestwick Library Screening Results, P. aeruginosa (increase in extracellular AK activity)
# [16] = planktonic E. faecium, cutoff for positive-scoring molecules 3-fold increase, read-out: AK-based Prestwick Library Screening Results, E. faecium (increase in extracellular AK activity)
# [17] = planktonic E. coli, cutoff for positive-scoring molecules 3-fold increase, read-out: AK-based Prestwick Library Screening Results, E. coli (increase in extracellular AK activity)
# [18] = planktonic, cutoff for positive 3-fold increase
compound,measurement,setting,value
CN(C)CCCN1c2ccccc2Sc2ccc(Cl)cc21 [Chlorpromazine hydrochloride],fold induction at 50 µM,K. pneumoniae; [3],1.1
same,fold induction at 50 µM,[1]; [4],1.4
same,fold induction at 50 µM,E. coli; [5],1.4
same,fold induction at 50 µM,E. cloacae; [6],1.4
same,fold induction at 50 µM,[2]; [7],1.5
same,fold induction at 50 µM,P. aeruginosa; [8],1.1
same,fold induction at 50 µM,E. faecium; [9],1
CCCNC(=O)NS(=O)(=O)c1ccc(Cl)cc1 [Chlorpropamide],fold induction at 50 µM,K. pneumoniae; [3],0.4
same,fold induction at 50 µM,[1]; [4],0.4
same,fold induction at 50 µM,E. coli; [5],0.4
same,fold induction at 50 µM,E. cloacae; [6],0.3
same,fold induction at 50 µM,[2]; [7],0.3
same,fold induction at 50 µM,P. aeruginosa; [8],0.3
same,fold induction at 50 µM,E. faecium; [9],0.9
CN(C)CC/C=C1/c2ccccc2Sc2ccc(Cl)cc21 [Chlorprothixene hydrochloride],fold induction at 50 µM,K. pneumoniae; [10],0.8
same,fold induction at 50 µM,[1]; [11],0.6
same,fold induction at 50 µM,E. coli; [12],1
same,fold induction at 50 µM,E. cloacae; [13],1
same,fold induction at 50 µM,[2]; [14],1.2
same,fold induction at 50 µM,P. aeruginosa; [15],0.9
same,fold induction at 50 µM,E. faecium; [16],1
CN(C)[C@@H]1C(O)=C(C(N)=O)C(=O)[C@@]2(O)C(O)=C3C(=O)c4c(O)ccc(Cl)c4[C@@](C)(O)[C@H]3C[C@@H]12 [Chlortetracycline hydrochloride],fold induction at 50 µM,K. pneumoniae; [3],0.2
same,fold induction at 50 µM,[1]; [4],6.8
same,fold induction at 50 µM,E. coli; [5],0.8
same,fold induction at 50 µM,E. cloacae; [6],1
same,fold induction at 50 µM,[2]; [7],3.9
same,fold induction at 50 µM,P. aeruginosa; [8],0.7
same,fold induction at 50 µM,E. faecium; [9],0.9
NS(=O)(=O)c1cc(C2(O)NC(=O)c3ccccc32)ccc1Cl (centres unmarked) [Chlorthalidone],fold induction at 50 µM,K. pneumoniae; [10],0.6
same,fold induction at 50 µM,[1]; [11],0.7
same,fold induction at 50 µM,E. coli; [17],0.9
same,fold induction at 50 µM,E. cloacae; [13],1
same,fold induction at 50 µM,[2]; [14],0.8
same,fold induction at 50 µM,P. aeruginosa; [15],0.8
same,fold induction at 50 µM,E. faecium; [16],0.9
C=C1CC[C@H](O)C/C1=C/C=C1\CCC[C@]2(C)[C@@H]([C@H](C)CCCC(C)C)CC[C@@H]12 [Cholecalciferol],fold induction at 50 µM,"K. pneumoniae; planktonic K. pneumoniae, […], read-out: AK-based Prestwick Library Screening Results, K. pneumoniae (increase in extracellular AK activity)",0.7
same,fold induction at 50 µM,"[1]; planktonic S. aureus, […], read-out: AK-based Prestwick Library Screening Results, S. aureus (increase in extracellular AK activity)",0.7
same,fold induction at 50 µM,E. coli; [12],1
same,fold induction at 50 µM,"E. cloacae; planktonic E. cloacae, […], read-out: AK-based Prestwick Library Screening Results, E. cloacae (increase in extracellular AK activity)",1
same,fold induction at 50 µM,"[2]; planktonic A. baumannii, […], read-out: AK-based Prestwick Library Screening Results, A. baumannii (increase in extracellular AK activity)",0.8
same,fold induction at 50 µM,"P. aeruginosa; planktonic P. aeruginosa, […], read-out: AK-based Prestwick Library Screening Results, P. aeruginosa (increase in extracellular AK activity)",0.9
same,fold induction at 50 µM,"E. faecium; planktonic E. faecium, […], read-out: AK-based Prestwick Library Screening Results, E. faecium (increase in extracellular AK activity)",0.9
"O=C1C=CC(=O)c2c1ccc1c2ccc2ccccc21 [Chrysene-1,4-quinone]",fold induction at 50 µM,"K. pneumoniae; planktonic, […], read-out: AK-based Prestwick Library Screening Results, K. pneumoniae (fold increase in extracellular AK activity)",0.8
same,fold induction at 50 µM,"[1]; planktonic, […], read-out: AK-based Prestwick Library Screening Results, S. aureus (fold increase in extracellular AK activity)",0.1
same,fold induction at 50 µM,"E. coli; planktonic, […], read-out: AK-based Prestwick Library Screening Results, E. coli (fold increase in extracellular AK activity)",1.1
same,fold induction at 50 µM,"E. cloacae; planktonic, […], read-out: AK-based Prestwick Library Screening Results, E. cloacae (fold increase in extracellular AK activity)",1.4
same,fold induction at 50 µM,"[2]; planktonic, […], read-out: AK-based Prestwick Library Screening Results, A. baumannii (fold increase in extracellular AK activity)",0.8
same,fold induction at 50 µM,"P. aeruginosa; planktonic, […], read-out: AK-based Prestwick Library Screening Results, P. aeruginosa (fold increase in extracellular AK activity)",1
same,fold induction at 50 µM,"E. faecium; planktonic, […], read-out: AK-based Prestwick Library Screening Results, E. faecium (fold increase in extracellular AK activity)",0.9
O=c1cc(-c2ccccc2)oc2cc(O)cc(O)c12 [Chrysin],fold induction at 50 µM,"K. pneumoniae; planktonic, cutoff for positive-scoring molecules 3-fold increase, read-out: AK-based Prestwick Library Screening Results, K. pneumoniae (fold increase in extracellular AK activity)",0.2
same,fold induction at 50 µM,"[1]; planktonic, cutoff for positive-scoring molecules 3-fold increase, read-out: AK-based Prestwick Library Screening Results, S. aureus (fold increase in extracellular AK activity)",0.2
same,fold induction at 50 µM,"E. coli; planktonic, cutoff for positive-scoring molecules 3-fold increase, read-out: AK-based Prestwick Library Screening Results, E. coli (fold increase in extracellular AK activity)",0.2
same,fold induction at 50 µM,"E. cloacae; planktonic, cutoff for positive-scoring molecules 3-fold increase, read-out: AK-based Prestwick Library Screening Results, E. cloacae (fold increase in extracellular AK activity)",0.6
same,fold induction at 50 µM,"[2]; planktonic, cutoff for positive-scoring molecules 3-fold increase, read-out: AK-based Prestwick Library Screening Results, A. baumannii (fold increase in extracellular AK activity)",0.2
same,fold induction at 50 µM,"P. aeruginosa; planktonic, cutoff for positive-scoring molecules 3-fold increase, read-out: AK-based Prestwick Library Screening Results, P. aeruginosa (fold increase in extracellular AK activity)",0.1
same,fold induction at 50 µM,"E. faecium; planktonic, cutoff for positive-scoring molecules 3-fold increase, read-out: AK-based Prestwick Library Screening Results, E. faecium (fold increase in extracellular AK activity)",0.3
Cc1cc(C2CCCCC2)n(O)c(=O)c1.NCCO [Ciclopirox ethanolamine],"AK-based Prestwick Library Screening Results, K. pneumoniae (fold increase in extracellular AK activity)",K. pneumoniae; [18],0.9
same,"AK-based Prestwick Library Screening Results, S. aureus (fold increase in extracellular AK activity)",[1]; [18],0.7
same,"AK-based Prestwick Library Screening Results, E. coli (fold increase in extracellular AK activity)",E. coli; [18],1.1
same,"AK-based Prestwick Library Screening Results, E. cloacae (fold increase in extracellular AK activity)",E. cloacae; [18],1.2
same,"AK-based Prestwick Library Screening Results, A. baumannii (fold increase in extracellular AK activity)",[2]; [18],1.2
same,"AK-based Prestwick Library Screening Results, P. aeruginosa (fold increase in extracellular AK activity)",P. aeruginosa; [18],1.0
same,"AK-based Prestwick Library Screening Results, E. faecium (fold increase in extracellular AK activity)",E. faecium; [18],1.6
O=C1CCc2cc(OCCCCc3nnnn3C3CCCCC3)ccc2N1 [Cilostazol],fold induction at 50 µM,K. pneumoniae; [10],0.7
same,fold induction at 50 µM,[1]; [11],0.8
same,fold induction at 50 µM,E. coli; [17],0.9
same,fold induction at 50 µM,E. cloacae; [13],0.9
same,fold induction at 50 µM,[2]; [14],0.9
same,fold induction at 50 µM,P. aeruginosa; [15],0.9
same,fold induction at 50 µM,E. faecium; [16],0.9
CN/C(=N/CCSCc1nc[nH]c1C)NC#N [Cimetidine],fold induction at 50 µM,"K. pneumoniae; 384-well format, cutoff for positive-scoring molecules 3-fold increase, read-out: AK-based Prestwick Library Screening Results, K. pneumoniae (increase in extracellular AK activity)",0.7
same,fold induction at 50 µM,"[1]; 384-well format, cutoff for positive-scoring molecules 3-fold increase, read-out: AK-based Prestwick Library Screening Results, S. aureus (increase in extracellular AK activity)",0.8
same,fold induction at 50 µM,"E. coli; 384-well format, cutoff for positive-scoring molecules 3-fold increase, read-out: AK-based Prestwick Library Screening Results, E. coli (increase in extracellular AK activity)",0.9
same,fold induction at 50 µM,"E. cloacae; 384-well format, cutoff for positive-scoring molecules 3-fold increase, read-out: AK-based Prestwick Library Screening Results, E. cloacae (increase in extracellular AK activity)",1
same,fold induction at 50 µM,"[2]; 384-well format, cutoff for positive-scoring molecules 3-fold increase, read-out: AK-based Prestwick Library Screening Results, A. baumannii (increase in extracellular AK activity)",0.8
same,fold induction at 50 µM,"P. aeruginosa; 384-well format, cutoff for positive-scoring molecules 3-fold increase, read-out: AK-based Prestwick Library Screening Results, P. aeruginosa (increase in extracellular AK activity)",0.8
same,fold induction at 50 µM,"E. faecium; 384-well format, cutoff for positive-scoring molecules 3-fold increase, read-out: AK-based Prestwick Library Screening Results, E. faecium (increase in extracellular AK activity)",0.9
